Data as given in ChEMBL document CHEMBL5661943, “ASAP - In vitro antiviral effect” (2024).
Values joined by “and” are separate entries in the source; they are usually repeats but may differ in a detail not shown here. Equal values may be shown once.

Tests used:
Zika virus [1] = assay: EC50 is reported via analysis of immunofluorescence staining. The assay has been performed by Icahn School of Medicine at Mount Sinai.; assay type: functional, organism-based, Chlorocebus sabaeus, VeroE6/TMPRSS2; details: for EC90: P-gp concentration 2 uM, P-gp inhibitor Elacidar
dengue virus type 2 [2] = assay: (§1) Functional immunofluorescence assay to measure dose dependent changes in antiviral-drug inhibitory efficacy against Dengue virus type 2 Thailand/16681/84 in Vero E6/TMPRSS2 cells (cotreated with P-gp inhibitor, Elacridar). Cells are treated with antiviral candidates that are serially diluted, following infection, cells are fixed. EC50 is reported via analysis of immunofluorescence staining. The assay has been performed by Icahn School of Medicine at Mount Sinai.; assay type: organism-based, Chlorocebus sabaeus, VeroE6/TMPRSS2; details: Dengue virus
Zika virus [3] = assay: Functional CPE-based assay to measure dose dependent changes in antiviral-drug inhibitory efficacy against Zika virus MR766 in Vero E6 miRFP670 cells. Cells are treated with antiviral candidates that are serially diluted. EC50 is reported via analysis of MTS assay as a readout of CPE. The assay has been performed by KU Leuven.; assay type: organism-based, Chlorocebus sabaeus, Vero C1008; details: Zika virus
Zika virus [4] = assay: as §1, with “Zika” for “Dengue”, “PRVABC59” for “type 2 Thailand/16681/84”, “cells.” for “cells (cotreated with P-gp inhibitor, Elacridar).”; assay type: organism-based, Chlorocebus sabaeus; details: for EC50: VeroE6/TMPRSS2
dengue virus type 2 [5] = assay: Functional assay to measure dose dependent changes in antiviral-drug inhibitory efficacy against Dengue virus type 2 New Guinea C in Vero E6 miRFP670 cells (cotreated with P-gp inhibitor, CP100356). Cells are treated with antiviral candidates that are serially diluted, following infection, cells are fixed. EC50 is reported via analysis of fluorescence intensity using high-content imager. The …; assay type: organism-based, Chlorocebus sabaeus, Vero C1008; details: Dengue virus, Vero C1008
dengue virus type 2 [6] = assay: as §1, with “cells.” for “cells (cotreated with P-gp inhibitor, Elacridar).”; assay type: organism-based, Chlorocebus sabaeus; details: for EC50: VeroE6/TMPRSS2

O=C(Nc1cc(Cl)cc(C(=O)Nc2cccc(-n3nn[nH]c3=O)c2)c1)OCc1ccccc1
EC50 (Zika virus [1]; Zika virus, VeroE6/TMPRSS2): 0.828 µM
EC90 (Zika virus [1]; Zika virus, VeroE6/TMPRSS2, Baseline response 0 %, Hill slope -0.989, Maximum measured 91.506 %, Maximum response 100 %, Minimum measured 6.41 %, R squared 0.606): > 5.56 µM
EC50 (dengue virus type 2 [2]; VeroE6/TMPRSS2): 38.1 µM
EC90 (dengue virus type 2 [2]; VeroE6/TMPRSS2, Baseline response 0 %, Hill slope -4.745, Maximum measured 70.688 %, Maximum response 60 %, Minimum measured 12.915 %, P-gp concentration 2 uM, R squared 0.282, P-gp inhibitor Elacidar): > 50 µM
EC50 (Zika virus [3]; Vero C1008): > 50 µM
EC90 (Zika virus [3]; Vero C1008, Baseline response 0 %, Hill slope -0.529, Maximum measured 3.199 %, Maximum response 100 %, Minimum measured -1.205 %, R squared 0.435): > 50 µM
EC50 (Zika virus [4]): 45.7 µM
EC90 (Zika virus [4]; VeroE6/TMPRSS2, Baseline response 0 %, Hill slope -14.888, Maximum measured 123.167 %, Maximum response 100 %, Minimum measured 20.725 %, R squared 0.524): > 50 µM
EC50 (dengue virus type 2 [5]): 44.1 µM
EC90 (dengue virus type 2 [5]): 48.8 µM

NCCCc1cccc(NC(=O)c2cc(Cl)cc(NC(=O)OCc3ccccc3)c2)n1
EC50 (Zika virus [1]; Zika virus, VeroE6/TMPRSS2): 0.762 µM
EC90 (Zika virus [1]; Zika virus, VeroE6/TMPRSS2, Baseline response 0 %, Hill slope -0.324, Maximum measured 72.025 %, Maximum response 100 %, Minimum measured 4.462 %, R squared 0.463): > 16.7 µM
EC50 (dengue virus type 2 [2]; VeroE6/TMPRSS2): > 5.56 µM
EC90 (dengue virus type 2 [2]; VeroE6/TMPRSS2, Baseline response 0 %, Hill slope -0.245, Maximum measured 101.026 %, Maximum response 100 %, Minimum measured 51.347 %, P-gp concentration 2 uM, R squared 0.141, P-gp inhibitor Elacidar): > 5.56 µM
EC50 (Zika virus [4]): > 50 µM
EC90 (Zika virus [4]; VeroE6/TMPRSS2, Maximum measured 444.624 %, Minimum measured 59.048 %): > 50 µM
EC50 (dengue virus type 2 [6]): < 0.023 µM
EC90 (dengue virus type 2 [6]; VeroE6/TMPRSS2, Baseline response 0 %, EC90 CI (lower) 0 uM, EC90 CI (upper) 0.069 uM, Hill slope -0.47, Maximum measured 66.667 %, Maximum response 100 %, Minimum measured 7.762 %, R squared 0.244): 2.12 µM

Cc1cc(-c2ccc([C@@H](NC(=O)OCc3ccccc3)C(=O)Nc3cccc(CN)c3)cc2)cs1
EC50 (Zika virus [1]; Zika virus, VeroE6/TMPRSS2): > 50 µM
EC90 (Zika virus [1]; Zika virus, VeroE6/TMPRSS2, Maximum measured 84.809 %, Minimum measured 8.553 %): > 50 µM
EC50 (dengue virus type 2 [2]; VeroE6/TMPRSS2): > 5.56 µM
EC90 (dengue virus type 2 [2]; VeroE6/TMPRSS2, Maximum measured 25.792 %, Minimum measured 7.149 %, P-gp concentration 2 uM, P-gp inhibitor Elacidar): > 5.56 µM
EC50 (Zika virus [4]): > 50 µM
EC90 (Zika virus [4]; VeroE6/TMPRSS2, Maximum measured 207.969 %, Minimum measured 85.523 %): > 50 µM
EC50 (dengue virus type 2 [6]): 0.145 µM
EC90 (dengue virus type 2 [6]; VeroE6/TMPRSS2, Baseline response 0 %, Hill slope -0.322, Maximum measured 78.243 %, Maximum response 100 %, Minimum measured 15.352 %, R squared 0.327): > 5.56 µM

O=C(Nc1cc(Cl)cc(C(=O)Nc2cccc(-c3nnn[nH]3)c2)c1)OCc1ccccc1
EC50 (Zika virus [1]; Zika virus, VeroE6/TMPRSS2): 2.68 µM
EC90 (Zika virus [1]; Zika virus, VeroE6/TMPRSS2, Baseline response 0 %, Hill slope -0.321, Maximum measured 94.477 %, Maximum response 100 %, Minimum measured 40.195 %, R squared 0.392): > 16.7 µM
EC50 (dengue virus type 2 [2]; VeroE6/TMPRSS2): 48.9 µM
EC90 (dengue virus type 2 [2]; VeroE6/TMPRSS2, Baseline response 0 %, Hill slope -12.435, Maximum measured 130.492 %, Maximum response 60 %, Minimum measured 25.847 %, P-gp concentration 2 uM, R squared 0.033, P-gp inhibitor Elacidar): > 50 µM
EC50 (Zika virus [4]): > 50 µM
EC90 (Zika virus [4]; VeroE6/TMPRSS2, Maximum measured 198.65 %, Minimum measured 79.352 %): > 50 µM

NCc1cccc(C(=O)Nc2cc(Cl)cc(NC(=O)OCc3ccccc3)c2)c1
EC90 (Zika virus [1]; Baseline response 0 %, Hill slope -0.985, Maximum measured 92.072 %, Maximum response 100 %, Minimum measured 6.61 %, R squared 0.567): > 5.56 µM
EC90 (Zika virus [1]; Zika virus, VeroE6/TMPRSS2, Baseline response 0 %, Hill slope -0.721, Maximum measured 131.562 %, Maximum response 100 %, Minimum measured 27.938 %, R squared 0.396): > 3.33 µM
EC50 (Zika virus [1]; veroe6/tmprss2): 2.1 µM and 0.867 µM
EC50 (dengue virus type 2 [2]; VeroE6/TMPRSS2): 3.17 µM
EC90 (dengue virus type 2 [2]; VeroE6/TMPRSS2): 5.42 µM
EC50 (dengue virus type 2 [6]): > 5.56 µM
EC90 (dengue virus type 2 [6]; VeroE6/TMPRSS2, Maximum measured 181.372 %, Minimum measured 88.426 %): > 5.56 µM
